Reference: ChEMBL document CHEMBL3885861, “Open TG-GATES”

Species on record: Rattus norvegicus
Experiment: Open TG-GATES - Regimen: Single
Type: toxicity, organism-based, Sprague-Dawley
Parameters: regimen Single, gender Male, age 6 weeks
Settings: in vivo, po, route gavage; for APTT / Bas / Eos / Fbg / Hb / Ht / Lym / MCH / MCHC / MCV / Mono / PT / Plat / RBC / Ret / WBC / Neu: tissue Blood; for KIDNEY_L / KIDNEY_R / KIDNEY_TOTAL: tissue Kidney; for LIVER: tissue Liver
[1] = 10 mg/kg, 24 h, tissue Plasma, dose level Low
[2] = 30 mg/kg, 3 h, dose level Middle
[3] = 30 mg/kg, 3 h, tissue Plasma, dose level Middle
[4] = 30 mg/kg, 6 h, dose level Middle
[5] = 30 mg/kg, 6 h, tissue Plasma, dose level Middle
[6] = 30 mg/kg, 9 h, dose level Middle
[7] = 30 mg/kg, 9 h, tissue Plasma, dose level Middle
[8] = 30 mg/kg, 24 h, dose level Middle
[9] = 30 mg/kg, 24 h, tissue Plasma, dose level Middle

SMILES: CC(=O)N1CCN(c2ccc(OCC3COC(Cn4ccnc4)(c4ccc(Cl)cc4Cl)O3)cc2)CC1 (stereo not given) [KETOCONAZOLE]
- TG [1]: 94.4 mg/dL
- TP [1]: 5.5 g/dL
- gamma-GTP [1]: 1.2 IU/L
- TERMINAL_BW [2]: 196.9 g
- APTT [2]: 21.2 s
- Bas [2]: 0%
- Eos [2]: 0.4%
- Fbg [2]: 275.6 mg/dL
- Hb [2]: 12.7 g/dL
- Ht [2]: 38.1%
- Lym [2]: 77.2%
- MCH [2]: 21.5 pg
- MCHC [2]: 33.2%
- MCV [2]: 64.6 fL
- Mono [2]: 1.6%
- PT [2]: 17.1 s
- Plat [2]: 121.6 x10_4/uL
- RBC [2]: 590.6 x10_4/ul
- Ret [2]: 8.6%
- WBC [2]: 75.8 x10_2/uL
- KIDNEY_L [2]: 0.9 g
- KIDNEY_R [2]: 0.9 g
- KIDNEY_TOTAL [2]: 1.8 g
- LIVER [2]: 9 g
- ALP [3]: 1671.8 IU/L
- AST [3]: 77 IU/L
- BUN [3]: 11.6 mg/dL
- CRE [3]: 0.2 mg/dL
- Ca [3]: 10.8 mg/dL
- Cl [3]: 105.2 meq/L
- DBIL [3]: 0 mg/dL
- GLC [3]: 188.2 mg/dL
- IP [3]: 8.6 mg/dL
- LDH [3]: 205.8 IU/L
- Na [3]: 141.2 meq/L
- PL [3]: 140.2 mg/dL
- RALB [3]: 2.9 g/dL
- TBIL [3]: 0.016 mg/dL
- TC [3]: 75.8 mg/dL
- TG [3]: 54 mg/dL
- TP [3]: 5.4 g/dL
- gamma-GTP [3]: 1.2 IU/L
- TERMINAL_BW [4]: 199.3 g
- APTT [4]: 21.8 s
- Bas [4]: 0%
- Eos [4]: 1%
- Fbg [4]: 304.4 mg/dL
- Hb [4]: 13.2 g/dL
- Ht [4]: 39.5%
- Lym [4]: 79.8%
- MCH [4]: 21.1 pg
- MCHC [4]: 33.5%
- MCV [4]: 63.1 fL
- Mono [4]: 2.2%
- Neu [4]: 15.8%
- PT [4]: 16.7 s
- Plat [4]: 126 x10_4/uL
- RBC [4]: 626.6 x10_4/ul
- Ret [4]: 7.8%
- WBC [4]: 67.8 x10_2/uL
- KIDNEY_L [4]: 0.9 g
- KIDNEY_R [4]: 0.9 g
- KIDNEY_TOTAL [4]: 1.9 g
- LIVER [4]: 8.4 g
- ALP [5]: 1604 IU/L
- AST [5]: 72.6 IU/L
- BUN [5]: 10.2 mg/dL
- CRE [5]: 0.2 mg/dL
- Ca [5]: 10.9 mg/dL
- Cl [5]: 105.6 meq/L
- DBIL [5]: 0 mg/dL
- GLC [5]: 179.4 mg/dL
- IP [5]: 9.4 mg/dL
- LDH [5]: 237.8 IU/L
- Na [5]: 142 meq/L
- PL [5]: 135 mg/dL
- RALB [5]: 3.1 g/dL
- TBIL [5]: 0.034 mg/dL
- TC [5]: 75 mg/dL
- TG [5]: 54.6 mg/dL
- TP [5]: 5.5 g/dL
- gamma-GTP [5]: 1.2 IU/L
- TERMINAL_BW [6]: 200.7 g
- APTT [6]: 21.4 s
- Bas [6]: 0%
- Eos [6]: 1%
- Fbg [6]: 287 mg/dL
- Hb [6]: 13.3 g/dL
- Ht [6]: 39.8%
- Lym [6]: 77.4%
- MCH [6]: 21.4 pg
- MCHC [6]: 33.4%
- MCV [6]: 63.9 fL
- Mono [6]: 1.4%
- Neu [6]: 19.8%
- PT [6]: 16.8 s
- Plat [6]: 127.9 x10_4/uL
- RBC [6]: 622.8 x10_4/ul
- Ret [6]: 8.5%
- WBC [6]: 52.8 x10_2/uL
- KIDNEY_L [6]: 1 g
- KIDNEY_R [6]: 1 g
- KIDNEY_TOTAL [6]: 1.9 g
- LIVER [6]: 8.3 g
- ALP [7]: 1563 IU/L
- AST [7]: 70.6 IU/L
- BUN [7]: 10.6 mg/dL
- CRE [7]: 0.2 mg/dL
- Ca [7]: 10.6 mg/dL
- Cl [7]: 105 meq/L
- DBIL [7]: 0.002 mg/dL
- GLC [7]: 176.2 mg/dL
- IP [7]: 10 mg/dL
- LDH [7]: 200.6 IU/L
- Na [7]: 141.2 meq/L
- PL [7]: 123.8 mg/dL
- RALB [7]: 3.1 g/dL
- TBIL [7]: 0.02 mg/dL
- TC [7]: 65.6 mg/dL
- TG [7]: 47 mg/dL
- TP [7]: 5.4 g/dL
- gamma-GTP [7]: 1.2 IU/L
- TERMINAL_BW [8]: 217.1 g
- APTT [8]: 20.6 s
- Bas [8]: 0%
- Eos [8]: 1%
- Fbg [8]: 320.8 mg/dL
- Hb [8]: 12.7 g/dL
- Ht [8]: 38.5%
- Lym [8]: 75.2%
- MCH [8]: 21.1 pg
- MCHC [8]: 33.1%
- MCV [8]: 64 fL
- Mono [8]: 1.6%
- Neu [8]: 20.6%
- PT [8]: 16.3 s
- Plat [8]: 121.7 x10_4/uL
- RBC [8]: 602 x10_4/ul
- Ret [8]: 7.3%
- WBC [8]: 66 x10_2/uL
- KIDNEY_L [8]: 1 g
- KIDNEY_R [8]: 1 g
- KIDNEY_TOTAL [8]: 2 g
- LIVER [8]: 10.7 g
- ALP [9]: 1798.8 IU/L
- ALT [9]: 49.4 IU/L
- AST [9]: 75 IU/L
- BUN [9]: 15.4 mg/dL
- CRE [9]: 0.2 mg/dL
- Ca [9]: 10.8 mg/dL
- Cl [9]: 106.2 meq/L
- DBIL [9]: 0 mg/dL
- GLC [9]: 179 mg/dL
- IP [9]: 7.5 mg/dL
- LDH [9]: 220 IU/L
- Na [9]: 142.4 meq/L
- PL [9]: 148.8 mg/dL
- RALB [9]: 3 g/dL
- TBIL [9]: 0.004 mg/dL
- TC [9]: 77.2 mg/dL
